According to the OPERA property sets (Mansouri et al. 2018):

Conditions: not given
With `BrCCCCCCCCCCBr` the ready biodegradability was “not readily biodegradable”. `Cc1cc(C)c2ncccc2c1` showed a boiling point of 268 °C. Work on `CN1[C@@H]2CCC[C@H]1CC2` yielded a boiling point of 166 °C. `C=COCCO` gave a boiling point of 142 °C. For `[O-][n+]1ccccc1S`, the melting point was 70.5 °C. In the case of `Clc1ccc(Oc2ccccc2Cl)cc1`, the log10 vapour pressure (mmHg) is reported as -3.15. Work on `CC(=O)OCc1ccco1` yielded a boiling point of 179 °C. Work on `CC1(C)[C@H](C(=O)O)CC[C@]1(C)C(=O)O` yielded a melting point of 189 °C. For `CC(C)CCCCCCC=O`, the boiling point was 197 °C. `CN(C)c1cccc(O)c1` gave a boiling point of 266 °C and a melting point of 86 °C. `CCNC(=O)C1CC(C)CCC1C(C)C` (stereo not drawn) gave a melting point of 88 °C. Compound `Cc1cccc(C(=O)Cl)c1` has a boiling point of 220 °C and a melting point of -23 °C. Compound `Cc1ccc(O)c(I)c1` has a melting point of 35 °C. Compound `CCCCC(=O)OCCC` has a boiling point of 168 °C and a melting point of -70.7 °C. In the case of `C=C1C=CC(C(C)C)CC1` (stereo not drawn), the boiling point is reported as 172 °C and the log10 vapour pressure (mmHg) is reported as 0.2. With `CCCCC(=O)c1ccccc1` the boiling point was 245 °C and the melting point was -9.4 °C. In the case of `CC(=O)O[C@@]12CO[C@@H]1C[C@H](O)[C@@]1(C)C(=O)[C@H](O)C3=C(C)[C@@H](OC(=O)[C@H](O)[C@@H](NC(=O)OC(C)(C)C)c4ccccc4)C[C@@](O)([C@@H](OC(=O)c4ccccc4)[C@H]21)C3(C)C`, the melting point is reported as 232 °C. With `CC(=O)Nc1c(I)c(NC(C)=O)c(I)c(C(=O)[O-])c1I.[Na+]` the melting point was 261 °C. For `CCCC(C)C(O)CC` (stereo not drawn), the boiling point was 170 °C and the melting point was -123 °C. `O=[N+]([O-])c1ccccc1CCO` showed a boiling point of 267 °C and a melting point of 2 °C. For `O=CN1CCCCC1`, the boiling point was 222 °C. For `CCCOC(=O)OCCC`, the boiling point was 168 °C. `CNC(=O)Oc1cccc(C(C)C)c1` gave a melting point of 73 °C. With `CC(C)(C(=O)c1cccnc1)c1cccnc1` the melting point was 50.5 °C. `CCCCCCCCCCF` showed a boiling point of 186 °C, a log10 vapour pressure (mmHg) of -0.203 and a melting point of -35 °C. In the case of `Cc1nc(C(F)(F)F)c(C(O)=Nc2c(Br)cc(OC(F)(F)F)cc2Br)s1`, the melting point is reported as 178 °C. With `C=CCN(CC=C)C(=O)COC(=O)c1ccccc1` the melting point was 42.5 °C. `Brc1cn[nH]c1` showed a boiling point of 255 °C and a melting point of 94.5 °C. Compound `CCCCCCCCO` has a boiling point of 195 °C, a log10 Henry constant (atm·m³/mol) of -4.61 and a log10 Koa of 6.03. It also gave a log10 Koc (L/kg) of 1.56, a log10 vapour pressure (mmHg) of -1.1 and a melting point of -15.5 °C. For the same compound, the ready biodegradability was “readily biodegradable”. Work on `CCCC(=O)C(C)CC` (stereo not drawn) yielded a boiling point of 154 °C. In the case of `COc1ccccc1CC(=O)O`, the melting point is reported as 124 °C. `Cc1c(C(C)OC(=O)CCC(=O)O)oc2ccc(C3=CC(=O)OC3)cc12` (stereo not drawn) showed a melting point of 144 °C. `CCNC1CCCCC1` showed a boiling point of 164 °C. `NC(=S)NS(=O)(=O)c1ccc(N)cc1` showed a melting point of 182 °C. `c1ccc2[nH]ccc2c1` gave a boiling point of 254 °C, a log10 vapour pressure (mmHg) of -1.91 and a melting point of 52.5 °C. The ready biodegradability was “readily biodegradable”. With `O=S(Cc1ccccc1)Cc1ccccc1` the melting point was 134 °C. `Brc1ccc2oc3ccccc3c2c1` gave a melting point of 110 °C. For `CO[C@H]1C=CO[C@@]2(C)Oc3c(C)c(O)c4c(O)c(cc(O)c4c3C2=O)NC(=O)C(C)=CC=C[C@H](C)[C@H](O)[C@@H](C)[C@@H](O)[C@@H](C)[C@H](OC(C)=O)[C@@H]1C`, the melting point was 300 °C. In the case of `CCCCCCc1ccc2ccccc2c1`, the boiling point is reported as 324 °C and the melting point is reported as -3 °C. `CC/C=C\CCCC` showed a boiling point of 123 °C and a melting point of -118 °C. Compound `COc1ccc(COC(=O)Cc2ccccc2)cc1` has a boiling point of 370 °C. Work on `C=CCOc1ccccc1` yielded a boiling point of 192 °C. Work on `COc1cc(OC)c2ccc(=O)oc2c1` yielded a melting point of 149 °C. Compound `O=C(O)c1cc([N+](=O)[O-])ccc1Cl` has a melting point of 166 °C. In the case of `C=CCc1cc(Cl)ccc1O`, the melting point is reported as 48 °C. With `C=CCC1(CC(C)C)C(=O)NC(=O)NC1=O` the melting point was 138 °C. For `NCCNCc1ccccc1`, the ready biodegradability was “not readily biodegradable”. Work on `CCCCCC(=O)OCC` yielded a boiling point of 167 °C, a log10 Koc (L/kg) of 2.06 and a melting point of -67 °C. In the case of `c1ccc2nnccc2c1`, the melting point is reported as 38 °C. In the case of `Cc1ccc(C(=O)c2ccc(C)cc2)cc1`, the boiling point is reported as 334 °C and the melting point is reported as 96.5 °C. Compound `FC(F)OC(Cl)C(F)(F)F` (stereo not drawn) has a boiling point of 48.5 °C, a log10 Henry constant (atm·m³/mol) of -1.54 and a melting point of 48.5 °C. For `CCC(C)C(C)C(C)C` (stereo not drawn), the boiling point was 139 °C and the log10 vapour pressure (mmHg) was 0.955. In the case of `CC(/C=C\c1ccccc1)c1ccccc1` (stereo not drawn), the boiling point is reported as 311 °C and the melting point is reported as 47.5 °C. With `CN(C)C(=O)OC1N=C(c2ccccc2)c2cc(Cl)ccc2N(C)C1=O` (stereo not drawn) the melting point was 174 °C. Compound `CCNc1nc(NCC)nc(SC)n1` has a log10 Koc (L/kg) of 2.3. `FC1(F)OC1(F)F` showed a boiling point of -63.5 °C and a melting point of -118 °C. With `CCOC(=O)OCC` the boiling point was 126 °C, the log10 vapour pressure (mmHg) was 1.03 and the melting point was -43 °C. Work on `O=C(O)c1ccc(C(=O)c2ccccc2)cc1` yielded a melting point of 199 °C. Compound `CCCC1CCCC1` has a boiling point of 131 °C, a log10 vapour pressure (mmHg) of 1.09 and a melting point of -117 °C. `CC(C)NCC(O)COc1cccc2c1C=CC2` (stereo not drawn) gave a melting point of 88.5 °C. `CCCCCCCCCCCCCCCCCCCCBr` gave a log10 vapour pressure (mmHg) of -6.08 and a melting point of 37.5 °C. `CN1CCC(N(Cc2cccs2)c2ccccc2)CC1` showed a melting point of 96 °C. For `FC(F)(F)c1cccc(C(F)(F)F)c1`, the boiling point was 116 °C and the ready biodegradability was “not readily biodegradable”. `CC(C(=O)O)c1ccc(N2CC=CC2)c(Cl)c1` (stereo not drawn) showed a melting point of 99 °C. In the case of `O=C(O)CCCCC(=O)O`, the boiling point is reported as 338 °C, the log10 vapour pressure (mmHg) is reported as -6.5 and the melting point is reported as 153 °C. The ready biodegradability was “readily biodegradable”. `C=CCN=C(S)NCCO` showed a melting point of 78 °C. With `O=C(Oc1cccc(O)c1)c1ccccc1` the melting point was 134 °C and the ready biodegradability was “readily biodegradable”. With `Oc1ccccc1I` the melting point was 43 °C and the ready biodegradability was “not readily biodegradable”. `Cc1ccc(C=O)o1` showed a boiling point of 187 °C. In the case of `OC1CCCCCCCCC1`, the melting point is reported as 40.5 °C. In the case of `c1ccc2c(c1)ccc1nc3ccc4ccccc4c3cc12`, the melting point is reported as 216 °C. `CCCCCCCCCCCCCCCCCCCCC` gave a boiling point of 356 °C, a log10 biodegradation half-life (days) of 1.4 and a log10 vapour pressure (mmHg) of -4.06. For the same compound, the melting point was 40.5 °C and the ready biodegradability was “readily biodegradable”. Work on `Cc1ccc(C)c(N)c1` yielded a boiling point of 214 °C, a log10 vapour pressure (mmHg) of -0.824 and a melting point of 15.5 °C. For the same compound, the ready biodegradability was “not readily biodegradable”. With `COc1ccc2c(c1)N(CCCN(C)C)c1ccccc1S2` the melting point was 46 °C. `Clc1cccnc1Cl` showed a melting point of 66 °C. In the case of `CCN(CC)c1nc(C)cc(OP(=S)(OC)OC)n1`, the log10 Koc (L/kg) is reported as 3, the log10 vapour pressure (mmHg) is reported as -4.82 and the melting point is reported as 15 °C. Compound `O=c1oc2ccccc2c(O)c1C1CC(c2ccc(OCc3ccc(C(F)(F)F)cc3)cc2)Cc2ccccc21` (stereo not drawn) has a melting point of 167 °C. `CN1CCC(=C2c3ccccc3C=Cc3ccccc32)CC1` gave a melting point of 113 °C. `Nc1ccc(Nc2ccc([N+](=O)[O-])cc2[N+](=O)[O-])cc1` showed a log10 vapour pressure (mmHg) of -10.2 and a melting point of 188 °C. `COc1cc(CO)ccc1O` gave a melting point of 115 °C. Compound `O=C(Oc1ccc2ccccc2c1)c1ccccc1` has a melting point of 107 °C. In the case of `CCOC(=O)C1CCCC1=O` (stereo not drawn), the boiling point is reported as 221 °C. Compound `CC(C)COc1ccccc1` has a boiling point of 198 °C. Work on `O=c1[nH]cc(N(CCCl)CCCl)c(=O)[nH]1` yielded a log10 Koc (L/kg) of 1.46. In the case of `CCCCOCC`, the boiling point is reported as 92.3 °C, the log10 vapour pressure (mmHg) is reported as 1.71 and the melting point is reported as -124 °C. With `CCCCS(=O)(=O)CCCC` the boiling point was 291 °C and the melting point was 45 °C. In the case of `ClC(Cl)(Br)C(Cl)(Cl)Br`, the melting point is reported as 202 °C. `Cc1cn[nH]c1` showed a boiling point of 206 °C. For `O=C(O)[C@@H](S)[C@@H](S)C(=O)O`, the melting point was 193 °C. For `CCCCCCC(C)(C)C`, the boiling point was 155 °C.

Same assay, conditions: fish
With `CCCCCCCCCCCCCOC(=O)CCCCC(=O)OCCCCCCCCCCCCC` the log10 biotransformation half-life (days) was -0.43. `Cc1ccc(C)c(N)c1` gave a log10 BCF of 0.58 and a log10 biotransformation half-life (days) of -0.99. With `Clc1cc(Cl)cc(-c2ccccc2)c1` the log10 BCF was 3.77 and the log10 biotransformation half-life (days) was 1.11.
